# PMC12396409, “Screening and hit evaluation of a microbial metabolite library against the pathogenic Plasmodium falciparum and Toxoplasma gondii parasites” (International Journal for Parasitology: Drugs and Drug …, 2025)
# Where two headings read alike, the source gives them in different places.
# Experiments:
# [1] = test system: T. gondii RH strain (RH-Tub-eYFP) tachyzoites; assay: microbe, parasite or virus in culture; assay type: cell-based, Toxoplasma gondii; conditions: for percent parasite growth at 2 µg/mL: Toxoplasma gondii, screen at 2 μg/mL
# [2] = test system: P. falciparum 3D7 parasites; assay: P. falciparum growth inhibition assay, 1-cycle (72 h treatment), SYBR DNA staining (library screen at 2 μg/mL and dose-response); assay type: cell-based, Plasmodium falciparum
# [3] = test system: P. falciparum 3D7 parasites; assay: P. falciparum growth inhibition assay, 2-cycle (120 h treatment), delayed-death screen and dose-response; assay type: cell-based, Plasmodium falciparum
# [4] = library screen at 2 μg/mL, 72 h, % growth, replicate 1
# [5] = library screen at 2 μg/mL, 72 h, % growth, replicate 2
# [6] = library screen at 2 μg/mL, 120 h, % growth, replicate 1
# [7] = library screen at 2 μg/mL, 120 h, % growth, replicate 2
# [8] = 72 h, T. gondii, 72 h, replicate 1, read-out: Tg_72h_%Growth_Rep1
# [9] = 72 h, T. gondii, 72 h, replicate 2, read-out: Tg_72h_%Growth_Rep2
# [10] = Plasmodium falciparum, 3D7, P. falciparum, 72 h, screen at 2 μg/mL, replicate 1, read-out: Pf_72h_%Growth_Rep1
# [11] = Plasmodium falciparum, 3D7, P. falciparum, 72 h, screen at 2 μg/mL, replicate 2, read-out: Pf_72h_%Growth_Rep2
# [12] = Plasmodium falciparum, 3D7, P. falciparum, 120 h, screen at 2 μg/mL, replicate 1, read-out: Pf_120h_%Growth_Rep1
# [13] = Plasmodium falciparum, 3D7, P. falciparum, 120 h, screen at 2 μg/mL, replicate 2, read-out: Pf_120h_%Growth_Rep2
compound,measurement,setting,value
Oc1cccc2nc3ccccc3nc12 [BIA-H1520],Tg_72h_%Growth_Rep1,"[1]; T. gondii RH, 72 h, library screen at 2 μg/mL, % growth, replicate 1",90.90%
same,Tg_72h_%Growth_Rep2,"[1]; T. gondii RH, 72 h, library screen at 2 μg/mL, % growth, replicate 2",78.11%
same,Pf_72h_%Growth_Rep1,"[2]; P. falciparum 3D7, 72 h, library screen at 2 μg/mL, % growth, replicate 1",84.93%
same,Pf_72h_%Growth_Rep2,"[2]; P. falciparum 3D7, 72 h, library screen at 2 μg/mL, % growth, replicate 2",98.32%
same,Pf_120h_%Growth_Rep1,"[3]; P. falciparum 3D7, 120 h, library screen at 2 μg/mL, % growth, replicate 1",70.83%
same,Pf_120h_%Growth_Rep2,"[3]; P. falciparum 3D7, 120 h, library screen at 2 μg/mL, % growth, replicate 2",82.39%
COc1cc2c(c3oc(=O)c4c(c13)CCOC4=O)C1C=COC1O2 (stereo not drawn) [Aflatoxin G1],Tg_72h_%Growth_Rep1,[1],81.49%
same,Tg_72h_%Growth_Rep2,[1],92.08%
same,Pf_72h_%Growth_Rep1,[2],72.54%
same,Pf_72h_%Growth_Rep2,[2],87.39%
same,Pf_120h_%Growth_Rep1,[3],145.89%
same,Pf_120h_%Growth_Rep2,[3],92.80%
C=C1CC[C@H]2C(C)(C)CCC[C@]2(C)[C@H]1C[C@@]12C[C@H]3C(=O)N4CCC=C4C(=O)N3[C@@H]1Nc1ccccc12 [Drimentine B],Tg_72h_%Growth_Rep1,[1]; [4],108.85%
same,Tg_72h_%Growth_Rep2,[1]; [5],84.36%
same,Pf_72h_%Growth_Rep1,[2]; [4],74.87%
same,Pf_72h_%Growth_Rep2,[2]; [5],73.00%
same,Pf_120h_%Growth_Rep1,[3]; [6],84.09%
same,Pf_120h_%Growth_Rep2,[3]; [7],80.10%
CCCCCCCCCCCCCCCCCC(=O)N[C@H]1CCOC1=O [BIA-O1501],Tg_72h_%Growth_Rep1,"[1]; T. gondii, 72 h, parasite screen at 2 μg/mL, % growth, replicate 1",147.08%
same,Tg_72h_%Growth_Rep2,"[1]; T. gondii, 72 h, parasite screen at 2 μg/mL, % growth, replicate 2",83.28%
same,Pf_72h_%Growth_Rep1,"[2]; P. falciparum 3D7, 72 h, parasite screen at 2 μg/mL, % growth, replicate 1",84.33%
same,Pf_72h_%Growth_Rep2,"[2]; P. falciparum 3D7, 72 h, parasite screen at 2 μg/mL, % growth, replicate 2",54.35%
same,Pf_120h_%Growth_Rep1,"[3]; P. falciparum 3D7, 120 h, parasite screen at 2 μg/mL, % growth, replicate 1",92.72%
same,Pf_120h_%Growth_Rep2,"[3]; P. falciparum 3D7, 120 h, parasite screen at 2 μg/mL, % growth, replicate 2",140.11%
N#Cc1cn([C@@H]2O[C@H](CO)[C@@H](O)[C@H]2O)c2ncnc(N)c12 [Toyocamycin],percent parasite growth at 2 µg/mL,[1]; [8],0.78%
same,percent parasite growth at 2 µg/mL,[1]; [9],1.19%
same,activity at 2 µg/mL,"[2]; Plasmodium falciparum, 3D7, 72 h, P. falciparum, 72 h, screen at 2 μg/mL, replicate 1, read-out: Pf_72h_%Growth_Rep1",2.78%
same,activity at 2 µg/mL,"[2]; Plasmodium falciparum, 3D7, 72 h, P. falciparum, 72 h, screen at 2 μg/mL, replicate 2, read-out: Pf_72h_%Growth_Rep2",4.02%
same,activity at 2 µg/mL,"[3]; Plasmodium falciparum, 3D7, 120 h, P. falciparum, 120 h, screen at 2 μg/mL, replicate 1, read-out: Pf_120h_%Growth_Rep1",25.6%
same,activity at 2 µg/mL,"[3]; Plasmodium falciparum, 3D7, 120 h, P. falciparum, 120 h, screen at 2 μg/mL, replicate 2, read-out: Pf_120h_%Growth_Rep2",6.44%
Spirolaxine,Tg_72h_%Growth_Rep1,"[1]; T. gondii, 72 h, parasite screen 2 μg/mL, % growth, replicate 1",20.75%
same,Tg_72h_%Growth_Rep2,"[1]; T. gondii, 72 h, parasite screen 2 μg/mL, % growth, replicate 2",22.73%
same,Pf_72h_%Growth_Rep1,"[2]; P. falciparum, 72 h, parasite screen 2 μg/mL, % growth, replicate 1",54.30%
same,Pf_72h_%Growth_Rep2,"[2]; P. falciparum, 72 h, parasite screen 2 μg/mL, % growth, replicate 2",41.64%
same,Pf_120h_%Growth_Rep1,"[3]; P. falciparum, 120 h, parasite screen 2 μg/mL, % growth, replicate 1",32.74%
same,Pf_120h_%Growth_Rep2,"[3]; P. falciparum, 120 h, parasite screen 2 μg/mL, % growth, replicate 2",18.31%
CC[C@H](C)[C@@H](OC(C)=O)[C@@H](C)C1=CC(=O)C2=C(O[C@]3(C)CC[C@H]4O[C@@H](C(C)(C)O)CC[C@]4(C)[C@H]3[C@@H]2O)C1=O [Cochlioquinone A],percent parasite growth at 2 µg/mL,"[1]; T. gondii, 72 h, replicate 1, read-out: Tg_72h_%Growth_Rep1",161%
same,percent parasite growth at 2 µg/mL,"[1]; T. gondii, 72 h, replicate 2, read-out: Tg_72h_%Growth_Rep2",90.2%
same,activity at 2 µg/mL,[2]; [10],79.2%
same,activity at 2 µg/mL,[2]; [11],80.1%
same,activity at 2 µg/mL,[3]; [12],75.8%
same,activity at 2 µg/mL,[3]; [13],74.1%
"CC[C@H]1OC(=O)C[C@@H](O)[C@H](C)[C@@H](O[C@@H]2O[C@H](C)[C@@H](O[C@H]3C[C@@](C)(O)[C@@H](O)[C@H](C)O3)[C@H](N(C)C)[C@H]2O)[C@@H](CC=O)C[C@@H](C)C(=O)/C=C/C(C)=C/[C@@H]1CO[C@@H]1O[C@H](C)[C@@H](O)[C@@H](OC)[C@H]1OC [Tylosin, reference compound]",percent parasite growth at 2 µg/mL,[1]; [8],29.4%
same,percent parasite growth at 2 µg/mL,[1]; [9],23.4%
same,activity at 2 µg/mL,"[2]; Plasmodium falciparum, 3D7; P. falciparum, 2 μg/mL, 72 h; read-out: 1) Growth (%) at 72 h",39.2%
same,activity at 2 µg/mL,[2]; [10],39.8%
same,activity at 2 µg/mL,[2]; [11],38.7%
same,3) Fold change (72 h/120 h),"[3]; P. falciparum, growth at 72 h / growth at 120 h, 2 μg/mL",2.3
same,activity at 2 µg/mL,"[3]; Plasmodium falciparum, 3D7; P. falciparum, 2 μg/mL, 120 h; read-out: 2) Growth (%) at 120 h",17.3%
same,activity at 2 µg/mL,[3]; [12],31.5%
same,activity at 2 µg/mL,[3]; [13],3.04%
C=C(CC[C@]12O[C@H](C(=O)O)[C@@](O)(C(=O)O)[C@](C(=O)O)(O1)[C@H](OC(=O)/C=C/[C@@H](C)C[C@@H](C)CC)[C@H]2O)[C@@H](OC(C)=O)[C@H](C)Cc1ccccc1 [Zaragozic acid A],percent parasite growth at 2 µg/mL,[1]; [8],122%
same,percent parasite growth at 2 µg/mL,[1]; [9],82.3%
same,activity at 2 µg/mL,[2]; [10],92.7%
same,activity at 2 µg/mL,[2]; [11],117%
same,activity at 2 µg/mL,[3]; [12],104%
same,activity at 2 µg/mL,[3]; [13],107%
"CC(=O)NCCc1ccc(O)cc1 [Acetyltyramine, N-]",Tg_72h_%Growth_Rep1,[1]; [4],171.49%
same,Tg_72h_%Growth_Rep2,[1]; [5],89.14%
same,Pf_72h_%Growth_Rep1,[2]; [4],85.43%
same,Pf_72h_%Growth_Rep2,[2]; [5],84.08%
same,Pf_120h_%Growth_Rep1,[3]; [6],85.62%
same,Pf_120h_%Growth_Rep2,[3]; [7],81.27%
